Data published in patent publication US9273043B2, “TRPV1 antagonists including dihydroxy substituent and uses thereof” (Purdue Pharma L.P., priority 2011, dated 2016).
In brackets after ≈: the same amount, converted by molar mass. Where two headings read alike, the source gives them in different places.

Assays:
[1] = Aqueous solubility at pH 1.2 and pH 6.8; type: physicochemical; conditions: aqueous solution
human TRPV1 [2] = molecular target: T1, human TRPV1 (Homo sapiens (Human), UniProt Q8NER1); test: Capsaicin-based assay, Protocol 2, TRPV1/CHO cells (hCAP-CHO), Fluo-4 FLIPR; type: cell-based; conditions: 100 nM capsaicin, mean ± SEM
T1 sequence (Q8NER1 whole entry, looked up, the tested form may be a part): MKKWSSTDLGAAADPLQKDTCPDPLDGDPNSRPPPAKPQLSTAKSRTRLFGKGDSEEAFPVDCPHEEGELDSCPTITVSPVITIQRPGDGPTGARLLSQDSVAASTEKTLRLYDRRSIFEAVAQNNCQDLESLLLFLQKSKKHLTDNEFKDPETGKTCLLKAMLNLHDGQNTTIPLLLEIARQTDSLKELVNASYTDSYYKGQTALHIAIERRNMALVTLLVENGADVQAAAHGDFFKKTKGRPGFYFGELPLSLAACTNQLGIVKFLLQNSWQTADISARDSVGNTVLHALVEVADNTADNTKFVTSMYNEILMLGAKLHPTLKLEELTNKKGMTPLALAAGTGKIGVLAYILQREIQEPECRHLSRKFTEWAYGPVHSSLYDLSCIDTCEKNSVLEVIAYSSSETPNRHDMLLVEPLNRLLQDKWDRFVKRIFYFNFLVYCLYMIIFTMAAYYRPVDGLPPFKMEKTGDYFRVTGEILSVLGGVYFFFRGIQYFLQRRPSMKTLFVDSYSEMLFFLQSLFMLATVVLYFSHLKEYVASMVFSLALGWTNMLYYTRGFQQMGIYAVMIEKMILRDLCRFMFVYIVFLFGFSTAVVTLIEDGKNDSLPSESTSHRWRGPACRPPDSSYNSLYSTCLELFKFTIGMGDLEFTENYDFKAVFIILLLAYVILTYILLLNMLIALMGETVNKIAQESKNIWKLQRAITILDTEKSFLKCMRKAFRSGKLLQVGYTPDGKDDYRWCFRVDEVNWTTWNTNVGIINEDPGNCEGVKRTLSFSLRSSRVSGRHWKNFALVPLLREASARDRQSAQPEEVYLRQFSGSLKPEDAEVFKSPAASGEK
Description: The TRPV1/CHO cell line was generated as described below. […] The resulting PCR products were purified from agarose gels using Gel Band Purification Kit (GE Healthcare Bioscience) and were subcloned into pCR-Blunt vector (Invitrogen). The cloned cDNA was fully sequenced using a fluorescent dye-terminator reagent (BigDye Terminator ver3.1 Cycle Sequencing Kit, Applied Biosystems) and ABI Prism 3100 genetic analyzer (Applied Biosystems). The pCR-Blunt vector containing the hTRPV1 cDNA was subjected to restriction digestion with EcoR1. The restriction fragment was subcloned into expression vector pcDNA3.1(-) (Invitrogen) and named pcDNA3.1(-)-hVR1 plasmid. The sequence of the cDNA encoding TRPV1 is available at GenBank accession number AJ277028. […] The cells were transfected with the pcDNA3.1(-)-hVR1 plasmid using FuGENE6 (Roche) according to the manufacturer's protocol. 24 hr after transfection, neomycin-resistant cells were selected using 1 mg/mL G418 (Nacalai Tesque). […] The cells expressing hTRPV1 were cultured in the growth medium supplemented with 1 mg/mL G418. […] Capsaicin-based Assay: […] Subsequently, the cells were loaded by incubation in 0.1 mL of wash buffer containing Fluo-4 at 3 μM final concentration. After 1 hour, the cells were washed twice with 0.2 mL wash buffer and resuspended in 0.1 mL wash buffer. The plates were then transferred to a Fluorescence Imaging Plate Reader (Molecular Devices). Fluorescence intensity was monitored for 15 seconds to establish a baseline. […] The final concentration of the compound was adjusted to range from 100 μM to 1.5625 μM. […] Data were collected over the entire time course and analyzed using Excel and the curve-fitting formula GraphPad Prism.

human TRPV1 [3] = molecular target: T1, human TRPV1; test: Human TRPV1 heat-based assay, hTRPV1/CHO cells (hHeat-CHO); type: cell-based; conditions: temperature ramp 25 to 45 °C, mean ± SEM
Method: Human TRPV1 Heat-based Assay:
CHO cells stably expressing human TRPV1 (hTRPV1) were used. Functional assessment of heat-induced activation of hTRPV1 was carried out in a cell-based Ca^2+ flux assay using ABI7500 Fast Real-Time PCR System as described in Reubish et al., “Functional assessment of temperature-gated ion-channel activity using a real-time PCR machine,” www.BioTechniques.com 47(3):iii-ix (2009), which is hereby incorporated by reference. Briefly, hTRPV1/CHO cells were cultured in growth media in a tissue culture dish at 37° C. in a CO2 incubator. On the day of the assay, culture media were removed and the cells were then detached using 0.05% trypsin at 37° C. with 5% CO2, for 90 s. The detached cells were centrifuged (1000 rpm, 4 min) to remove trypsin-containing supernatant and resuspended in assay buffer (115 mM NaCl, 5.4 mM KCl, 0.8 mM MgCl2.6H2O, 1.8 mM CaCl2.2H2O, 13.8 mM D-glucose, and 20 mM HEPES). Then, the cells were loaded with 5 μM Fluo-4, a Ca^2+ reporter dye, in the presence of 2.5 mM probenecid at 37° C. with 5% CO2, for 45 min. Thereafter, the cells were washed twice with measuring buffer (assay buffer supplemented with 0.1% BSA and 3.2 mM CaCl2) then transferred to a Fast 96-well Reaction Plate (0.1 mL) (Part no. 4346907, MICROAMP, Applied Biosystems, Foster City, Calif.). The cell density was 100,000 cells/24 μL/well. A solution of the compound under test (6 μL/well) was added into each well of the 96-well plate. Thus, the reaction volume per well was 30 μL.
The plates were then placed inside an ABI7500 Fast Real-Time PCR instrument (Applied Biosystems) to read fluorescence at different temperatures using 7500 software, version 2.0.2 (Applied Biosystems). The initial temperature was set at 25° C. for 1 min. followed by a temperature ramp to 45° C. in 100 s to deliver heat to cells. [Ca^2+], response of hTRPV1/CHO cells to heat was determined as: [fluorescence read at 45° C.−fluorescence read at 25° C.].
Compound concentration response curves and IC50 values were analyzed using GraphPad Prism 4 software (GraphPad Software, La Jolla, Calif.).
The IC50 data provided in Table 6 are shown as mean±standard error of the mean; the number of trials conducted for each assay is shown in parentheses except for only a single trial where no number of trials is shown in parentheses.

[4] = In vivo assay of body temperature increase (rectal body temperature); design: species or system rat; conditions: rats, oral, 10 mL/kg of 1 mg/mL in 0.5% methylcellulose; greatest ΔTb versus vehicle control at 0.5, 1 or 2 hrs
Description: Hyperthermia or undesirable elevation in animal body temperature is known to be an undesirable side-effect accompanying the administration of certain TRPV1 antagonists (Gavva, “Body-temperature maintenance as the predominant function of the vanilloid receptor TRPV1,” Trends Pharmacol. Sci. 29(11):550-557 (2008)).
Test Animals: Selection of rats (Crl/SD rats, 7 weeks, male) was based on rectal body temperature measured during the morning of the day of dosing as described below. In addition, to minimize spontaneous, stress-induced increases in body temperature, rats were acclimated in advance to both the rectal measurement procedure and to being handled and dosed. All lodging and testing took place in animal care laboratories with constant room temperature and humidity. The rats were free to move and ingest food and water throughout. Each rat was coded with a colored line on the tail, housed in a separate cage, and permitted the normal range of movement. Immediately before each body temperature measurement, a rat was transferred to a measurement cage. To reduce stress which could influence its body temperature, each rat was covered with towels during the measurement. A thermistor probe was then carefully inserted into the rectum of each rat and left in place until the temperature reading on the digital display had stabilized; this value was recorded.
Assay: On the day before dosing, rectal body temperature was measured at 9:00, 10:00, 11:00, 12:30, 13:30, 14:30, and 15:30 o'clock to familiarize the rats with the measurement procedure prior to administration of the test or control treatments. The rats were also dosed by oral gavage without vehicle at 12:30 o'clock to acclimate and familiarize them with the handling and dosing procedure.
On the day of dosing, only rats with rectal body temperatures within the range of from 37.0° C. to 37.7° C. were selected for study. Rectal body temperatures were measured at 9:00, 10:00, and 11:00 o'clock. Rats were excluded from the study if either their rectal body temperature was over 37.9° C. at 10:00 o'clock or was outside the range of from 37.0° C. to 37.7° C. at 11:00 o'clock. The selected rats were divided into several groups based on their rectal body temperatures at 11:00 o'clock. Rectal body temperatures of the selected rats were measured again at 12:30 o'clock and any rat with a rectal body temperature of 38.0° C. or greater was also excluded from the study.
Following assignment to either a test or control group, a test compound or a control was administered to the rats. Each test compound was dissolved in a vehicle of 0.5% aqueous methylcellulose solution and the final concentration of the test compound was adjusted to 1 mg/mL. Each test compound was orally administered once at a dose of 10 mL/kg. The same volume of the control (vehicle only) was administered once to the control group. Rectal body temperatures were measured at the following time points: 0.5, 1, and 2 hrs after administration.
The body temperature increase (ΔTb) for each test compound was calculated by subtracting, at each time point, the average temperature of the control group from the average temperature of the group administered that test compound. The greatest ΔTb obtained for each test compound at any of the time points is shown in Table 11 below, along with the ΔTb of the control.

solubility ([1]; pH 1.2, simulated gastric fluid, read-out: aqueous solubility at pH 1.2) [µM]	solubility ([1]; pH 6.8, aqueous buffer, read-out: aqueous solubility at pH 6.8) [µM]	IC50 (human TRPV1 [2]) [nM]	IC50 (human TRPV1 [3]) [nM]	ΔTb, body temperature increase [4] [°C]	Structure (SMILES)
> 50	17 (≈ 7.64 µg/mL)	96 ± 18	700	0.2	C[C@H]1CN(c2ncc([C@H](O)CO)cc2F)CCN1C(=O)Nc1nc2cc(F)ccc2s1 [A155(a), (S)-4-{5-[(S)-1,2-Dihydroxyethyl]-3-fluoropyridin-2-yl}-N-(5-fluorobenzo[d]thiazol-2-yl)-2-methylpiperazine-1-carboxamide]
–	–	63.7 ± 13.4	490	0.5	C[C@H](O)[C@@H](O)c1cnc(N2CCN(C(=O)Nc3nc4ccc(F)cc4s3)[C@@H](C)C2)c(F)c1 [BB, (S)-4-{5-[(1S,2S)-1,2-dihydroxypropyl]-3-fluoropyridin-2-yl}-N-(6-fluorobenzo[d]thiazol-2-yl)-2-methylpiperazine-1-carboxamide]
